Test results as given in ChEMBL document CHEMBL4725287, “An in silico mechanistic insight into HDAC8 activation facilitates the discovery of new small-molecule activators” (Bioorg Med Chem, 2020).
pEC50: −log10 of the molar value.

Tests used:
[1] = biological target: T1, Histone deacetylase 8 (Homo sapiens) (UniProt Q9BY41); assay: Substrate-dependent activation of HDAC8 (unknown origin) assessed as fold activation using FLUOR DE LYS as substrate at 20 uM incubated for 30 mins by fluorescence based assay relative to control; settings: filed as activator
T1 sequence (whole entry): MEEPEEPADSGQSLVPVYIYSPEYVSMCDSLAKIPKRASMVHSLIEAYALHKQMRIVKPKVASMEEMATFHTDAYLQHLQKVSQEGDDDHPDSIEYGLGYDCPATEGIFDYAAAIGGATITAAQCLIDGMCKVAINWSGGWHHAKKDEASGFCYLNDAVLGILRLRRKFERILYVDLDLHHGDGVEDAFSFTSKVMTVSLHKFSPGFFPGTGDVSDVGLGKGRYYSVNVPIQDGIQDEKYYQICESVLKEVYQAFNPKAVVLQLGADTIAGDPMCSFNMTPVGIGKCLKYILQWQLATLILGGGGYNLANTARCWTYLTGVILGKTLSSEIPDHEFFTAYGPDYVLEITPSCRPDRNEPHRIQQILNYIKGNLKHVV

Histone deacetylase 8 = biological target: T2, Histone deacetylase 8 (Homo sapiens, UniProt Q9BY41); assay: Substrate-dependent activation of HDAC8 (unknown origin) using FLUOR DE LYS as substrate incubated for 30 mins by fluorescence based assay
T2 sequence (Q9BY41 whole entry): T1 sequence (whole entry)

SMILES	fold change (FC) [1]	pEC50 (Histone deacetylase 8)
Nc1ncccc1O	1.3	
O=C(O)c1cccnc1S	1.3	
Oc1ccccc1-c1nc2ccccc2s1	1.3	
Sc1nc2ccccc2o1	1.3	
Oc1cccc2cccnc12 [OXYQUINOLINE]	1.3	4.95
O=C(O)c1ccccc1S [THIOSALICYLIC ACID]	1.3	4.77
